Measurements: PMC5727211, “Development of Erasin: a chromone-based STAT3 inhibitor which induces apoptosis in Erlotinib-resistant lung cancer cells” (Scientific Reports, 2017)
“Also recorded” adds a separate entry of the source.

Assay: NMR-based stability analysis (hydrolysis of acyl hydrazone to aldehyde)
Type: physicochemical
Settings: deuterated phosphate buffer pD = 7.9 with DMSO-d6, 24 h
Procedure: The formation of acyl hydrazones from aldehydes is a reversible reaction. […] The strongly divergent relative activities of the aldehydes 8a and 9a compared to the acyl hydrazones 8 and 9 imply that the activity of the acyl hydrazones is not a consequence of aldehyde formation.
Na2DPO4 (C/D/N Isotopes, 8.5 mM) and NaD2PO4 (C/D/N Isotopes, 3.3 mM) were dissolved in D2O to give a total phosphate concentration of 11.8 mM. The measured pH of 7.5 corresponds to a pD of 7.91 according to the literature.
This reduction tails off, consistent with the idea that inhibition of STAT3 by 8 is a slow but reversible process. An alternative explanation for time-dependent inhibition would be covalent modification of the Michael acceptor of the chromones by the protein. While we cannot formally exclude this possibility, two observations argue against cysteine alkylation as the […]
double bond of 8. B) Secondly, omission of the strong nucleophile dithiothreitol (DTT) from the assay […]
easily susceptible to covalent modification by nucleophiles. Data after 2 h of incubation are shown. C) Activity of 8 in a fluorescence polarization assay against wild-type STAT3 or a STAT3 Glu594Ala mutant after 2 h incubation in the presence of 1 mM DTT. […]

CC(C)(C)c1ccc2occ(/C=N/NC(=O)c3cccnc3)c(=O)c2c1 [Compound 8]
hydrolysis to the aldehyde (1H-NMR): no sign of hydrolysis; also recorded: no sign of aldehyde release
